Data reported in patent publication US20120164671A1, “METHODS FOR MONITORING IMMUNOSUPPRESSANT DRUG LEVELS, RENAL FUNCTION, AND HEPATIC FUNCTION USING SMALL VOLUME SAMPLES” (priority 2008, published 2012).
Where two headings read alike, the source gives them in different places.

Conditions: human, in vivo
Description: The patient collected an approximately 500 μL blood sample from a fingerstick. The small volume blood sample was collected as described above, using a K2-EDTA collection tube, and timely transported to the testing facility. At the testing facility, the whole blood sample in K2-EDTA was split into 3 fractions: (1) 50 μL for immunosuppressant drug monitoring using tandem mass spectrometry, (2) 50 μL for complete blood count by flow cytometry, and (3) the remainder for various other tests.
The first fraction was prepared by adding 200 μL of ZnSO4 (zinc sulfate) to the fraction, and the cells were lysed by vortexing for 10 seconds. Then 500 μL of a solution containing acetonitrile and internal reference standards (ascomycin: 2 nanograms (ng)/ml, along with cyclosporin D 25 ng/ml) was added, and the sample was mixed by vortexing for 20 seconds. The tubes were then spun down for 4 minutes at 14,000×g (14,000 times gravity). The supernatant was decanted into vials for assay by mass spectrometry.
The patient collected an approximately 500 μL blood sample from a fingerstick. The small volume blood sample was collected using a K2-EDTA collection tube, transported to the testing facility, and divided into three fractions as described above. Each fraction was prepared as described above for the adult patient, and the same immunosuppressant drug monitoring of immunosuppressants, complete blood count, assays for renal function, and assays for hepatic function were performed.

SMILES	Result (blood level) (female) [µg/L]	Result (blood level) (male) [µg/L]
CO[C@H]1C[C@@H]2CC[C@@H](C)[C@@](O)(O2)C(=O)C(=O)N2CCCC[C@H]2C(=O)O[C@H]([C@H](C)C[C@@H]2CC[C@@H](O)[C@H](OC)C2)CC(=O)[C@H](C)/C=C(\C)[C@@H](O)[C@@H](OC)C(=O)[C@H](C)C[C@H](C)/C=C/C=C/C=C/1C [Rapamycin]	3.10	5.10
C=CC[C@@H]1/C=C(\C)C[C@H](C)C[C@H](OC)[C@H]2O[C@@](O)(C(=O)C(=O)N3CCCC[C@H]3C(=O)O[C@H](/C(C)=C/[C@@H]3CC[C@@H](O)[C@H](OC)C3)[C@H](C)[C@@H](O)CC1=O)[C@H](C)C[C@@H]2OC [Tacrolimus]	10.80	6.80
